{"source": "patent US20040146498A1", "about": "“Pharmaceutical combinations” (priority 2001, published 2004)", "system": "femoral artery thrombosis", "experiment": "Canine femoral artery thrombosis model", "format": "in vivo", "details": "Compound A administered in combination with aspirin (pre-treatment) versus either agent alone; dog; FIG. 1; not statistically significant", "from_the_text": "Canine Femoral Artery Thrombosis Model—Compound A and Aspirin Compound A as defined above was used in combination with aspirin in a dog model of femoral artery thrombosis to determine whether combination of a P2T-receptor antagonist and pre-treatment with aspirin would have an improved profile when compared to the effect of either agent used alone.", "data": [{"smiles": "CCCSc1nc(N[C@@H]2C[C@H]2c2ccc(F)c(F)c2)c2nnn([C@@H]3C[C@H](OCCO)[C@@H](O)[C@H]3O)c2n1", "note": "[Compound A]", "values": [{"measurement": "anti-thrombotic potency (dose (ID50) required to produce 50% inhibition of thrombosis)", "value": "trend for an increased anti-thrombotic potency"}]}]}
